Assay results taken from US20130143881A1, “Hydrated Crystalline Forms of N-[3-fluoro-4-(oxy)phenyl]-N'-(4-fluorophenyl)cyclopropane-1,1-dicarboxamide” (Exelixis, Inc., priority 2010, published 2013).

Experiment: Gravimetric vapor sorption (GVS) study
Type: physicochemical
Conditions: 25° C. and 90 percent humidity
Protocol: A gravimetric vapor sorption (GVS) study was run using a standard procedure. Samples were run on a dynamic vapor sorption analyzer (Surface Measurement Systems) running DVSCFR software. Sample sizes were typically 10 mg. A moisture adsorption desorption isotherm was performed as outlined below. The standard isotherm experiment, performed at 25° C., is a two-cycle run, starting at 40 percent RH, increasing humidity to 90 percent RH, decreasing humidity to 0 percent RH, increasing humidity again to 90 percent RH, and finally decreasing humidity to 0 percent RH in 10 percent RH intervals.

## COc1cc2c(Oc3ccc(NC(=O)C4(C(=O)Nc5ccc(F)cc5)CC4)cc3F)ccnc2cc1OCCCN1CCOCC1 [crystalline Compound (I), N-[3-fluoro-4-({6-(methyloxy)-7-[(3-morpholin-4-ylpropyl)oxy]quinolin-4-yl}oxy)phenyl]-N′-(4-fluorophenyl)cyclopropane-1,1-dicarboxamide crystalline hydrate]
  weight gain (GVS moisture sorption): 2.5%
